Results from US5484940A, “Substituted 3-indolyl-5-pyrazolone compounds” (priority 1994, dated 1996).

Key:
5-lipoxygenase = target: T1, 5-lipoxygenase (Rattus norvegicus, UniProt P12527); assay: 5-Lipoxygenase inhibition (5-HETE radioimmunoassay); format: biochemical; settings: 6 μM compound; crude enzyme from RBL-1 cells; read-out: Percent Inhibition (5-lipoxygenase)
T1 construct: crude 5-lipoxygenase enzyme from rat basophilic leukemia cells (RBL-1); endogenous in cells; host or cells: RBL-1 (rat basophilic leukemia cells), crude enzyme
T1 sequence (P12527 1-673): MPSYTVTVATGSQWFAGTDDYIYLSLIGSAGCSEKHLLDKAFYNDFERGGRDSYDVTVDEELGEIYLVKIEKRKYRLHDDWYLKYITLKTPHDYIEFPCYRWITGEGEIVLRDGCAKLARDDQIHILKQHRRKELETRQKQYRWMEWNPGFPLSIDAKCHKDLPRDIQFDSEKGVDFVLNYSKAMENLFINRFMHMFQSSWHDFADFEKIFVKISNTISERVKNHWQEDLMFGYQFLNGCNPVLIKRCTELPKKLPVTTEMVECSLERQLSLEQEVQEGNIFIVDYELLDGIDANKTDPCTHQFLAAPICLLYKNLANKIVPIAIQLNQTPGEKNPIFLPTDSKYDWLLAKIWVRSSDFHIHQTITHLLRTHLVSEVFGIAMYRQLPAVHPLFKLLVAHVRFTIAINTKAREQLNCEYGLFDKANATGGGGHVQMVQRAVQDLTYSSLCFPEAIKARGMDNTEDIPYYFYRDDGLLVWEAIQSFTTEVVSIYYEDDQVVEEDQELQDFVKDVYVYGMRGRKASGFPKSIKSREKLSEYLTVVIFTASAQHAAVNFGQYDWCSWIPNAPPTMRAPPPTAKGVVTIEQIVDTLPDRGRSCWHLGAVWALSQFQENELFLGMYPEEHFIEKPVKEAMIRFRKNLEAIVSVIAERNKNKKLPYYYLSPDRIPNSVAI
Procedure: 5-Lipoxygenase catalyzes the oxidative metabolism of arachidonic acid to 5-hydroperoxyeicosatetraenoid acid ([…]), the initial reaction leading to the formation of the leukotrienes^18. Accordingly, compounds inhibiting 5-lipoxygenase activity are art recognized to have anti-inflammatory properties.
The ability of test compounds to inhibit 5-lipoxygenase activity was determined in assays^19 using crude 5-lipoxygenase enzyme from rat basophilic leukemia cells (RBL-1). Test compounds are pre-incubated with the enzyme for 5 minutes at room temperature and the reaction is initiated by addition of substrate (arachidonic acid). Following an 8 minute incubation at room temperature, the reaction is terminated by addition of citric acid, and levels of 5-HETE determined by 5-HETE radioimmunoassay.

rat cortical neurons = assay: Inhibition of toxicity of β-amyloid peptide to rat neuronal cells (alamarBlue); format: cell-based; settings: 10 to 20 μM β-amyloid peptide, 2-3 days; on average where more than one duplicate experiment; compound concentration not stated
Procedure: (§1) The purpose of this test is to determine the effect of 3-indolyl-5-pyrazolone compounds on the toxicity of β-amyloid peptide to neuronal cells.
Primary rat cortical cultures were established from 18 day rat fetuses. Cortical tissue was dissociated by incubation in a trypsin/EDTA solution (0.05% trypsin+0.53 mM EDTA in HBSS; GIBCO Laboratories, Grand Island, N.Y., USA) for 20 minutes at 37° C. The trypsin was then inactivated by resuspending the cells in serum-containing medium (DMEM/FBS): Dulbecco's Modified Eagles' Medium (DMEM) containing 4.5 g/L glucose, 1 mM sodium pyruvate, 1 mM glutamine, 100 Units/mL penicillin, 100 μg/mL streptomycin, and supplemented with 10% heat-inactivated fetal bovine serum (GIBCO Laboratories, Grand Island, N.Y., USA). Cells were then pelleted by centrifugation and resuspended in a chemically-defined medium (DMEM/B27: DMEM containing B27 supplement; GIBCO Laboratories, Grand Island, N.Y., USA) in place of FBS. Polyethyleneimine (PEI; Sigma Chemical Company, St. Louis, Mo., USA)-coated 6.4 mm (96-well) dishes were timed once with DMEM/FBS, and then seeded at 0.75 to 1.25×10^5 cells per well in 0.1 mL DMEM/B27. Cultures were maintained in a H2 O-saturated incubator with an atmosphere of 90% air/10% CO2 at 37° C. Cell viability was visually assessed by phase contrast microscopy and quantified by measuring the reduction of alamarBlue™ (Alamar biosciences, Inc., Sacramento, Calif., USA) as described below. Serum replacement with B27 supplement yields nearly pure neuronal cultures as judged by immunocytochemistry for glial fibrillary acidic protein and neuron-specific enolase (Brewer, et al.^20)
(§2) β-amyloid peptide stock solutions were prepared as 1 mM stocks in sterile, doubly distilled water immediately prior to addition to cultures. Rat cortical neurons were exposed to β-amyloid peptide by removing the culture medium and replacing it with DMEM/N2 (GIBCO Laboratories,Grand Island, N.Y., USA) containing 10 to 20 μM β-amyloid peptide. Human cortical neurons were exposed to test compound plus β-amyloid peptide by removing the culture medium and replacing it with MEM containing 50 μM β-amyloid peptide. Cultures were maintained for 2-3 days before neuronal survival was quantified using alamarBlue™.
(§3) The alamarBlue™ assay incorporates a fluorometric/colorimetric metabolic indicator (Alamar Biosciences, Inc. Sacramento, Calif., USA). Viable cells convert alamarBlue™ from an oxidized (non-fluorescent, blue) form to a reduced (fluorescent, red) form. Assays were preformed by replacing the culture media with a 10% alamarBlue™ solution in DMEM (rat cortical cultures) or MEM (human cortical cultures).

human cortical neurons = assay: Inhibition of toxicity of β-amyloid peptide to human neuronal cells (alamarBlue); format: cell-based; settings: 50 μM β-amyloid peptide, 2-3 days; on average where more than one duplicate experiment; compound concentration not stated
Procedure: as §1
Primary Human Cortical Cell Culture
Primary human cortical cultures were prepared using a modification of the procedure described by Seubert, et al.^21 Following filtration through Nitex nylon screens, cortical tissue was resuspended in a trypsin/EDTA solution (0.05% trypsin+0.53 mM EDTA in HBSS; GIBCO Laboratories, Grand Island, N.Y., USA) and kept at 37° C. for 20 minutes. The trypsin was then inactivated by resuspending the cells in serum-containing medium (MEM/FBS: Modified Eagles' Medium (MEM) containing 1% glucose, 1 mM sodium pyruvate, 1 mM glutamine, and supplemented with 10% fetal bovine serum (GIBCO). Cells were then pelleted by centrifugation and resuspended in a chemically-defined medium (MEM/B27: MEM containing B27 supplement in place of FBS; GIBCO). Polyethyleneimine (PEI; Sigma Chemical Company, St. Louis, Mo., USA)-coated 6.4 mm (96-well) dishes were rinsed once with MEM/FBS, and then seeded at 0.75 to 1.25×10^5 cells per well in 0.1 mL MEM/B27. Cultures were maintained in a H2 O-saturated incubator with an atmosphere of 95% air/5% CO 2 at 37° C. The culture medium was exchanged twice weekly. Cell viability was visually assessed by phase contrast microscopy and quantified by measuring the reduction of alamarBlue™ (Alamar Biosciences, Inc., Sacramento, Calif., USA).
as §2, §3

Structure (SMILES): COc1ccc2c(c1)c(CC1=NN(c3cccc(C(F)(F)F)c3)C(=O)C1)c(C)n2C(=O)c1ccc(Cl)cc1 [Example 25, 3-[1-(4-chlorobenzoyl)-5-methoxy-2-methyl-3-indolylmethyl]-1-(3-trifluoromethylphenyl)-5-pyrazolone]
- inhibition at 6 µM (5-lipoxygenase): 60%
- inhibition of the toxicity of β-amyloid peptide to rat neuronal cells (rat cortical neurons): at least 10%
- inhibition of the toxicity of β-amyloid peptide to human neuronal cells (human cortical neurons): at least 25%
